What was measured:
[1] = system: 12 day dry surface biofilm (Staphylococcus aureus ATCC 25923); assay: Initial screening using TOC to assess removal of dry surface biofilm; type: cell-based; conditions: for TOC Coupons with Biofilm: biofilm coated Pyrex coupons after cleaning, Table 14 dilution; for TOC due to biofilm: biofilm coupon TOC minus blank coupon TOC; for TOC Blank coupons: fresh clean coupons exposed to test product at Table 14 dilution; for % Reduction (TOC): relative to negative control (Milli-Q water)
[2] = system: 12 day dry surface biofilm; assay: Protein removal from dry surface biofilm coated coupons (BCA assay); type: cell-based, Staphylococcus aureus
Protocol: 12 day biofilm was grown on PET coupons following the methodology of Example 8. The rods containing the biofilm coated coupons were then removed and any loosely bound biofilm washed off with Milli-Q water as described in Example 8.
One rod holding three dry surface biofilm coated coupons was then placed into 30 ml of a solution of Example 9 (17 g/litre) for 10 minutes. A second rod was placed into 30 ml of a solution of Matrix (1:50 dilution), and a third rod placed into 30 ml Milli-Q water to serve as a positive control. An additional rod, holding 3 uncoated coupons was sterilized and used as a negative control.
After 10 minutes, each rod was placed into 30 ml of 1M sodium hydroxide solution to elute off all remaining protein. Aliquots from each solution were then taken and tested for protein using a Bicinchroninic Acid (BCA) assay, using a micro BCA test kit (Sigma Aldrich).
In order to perform the BCA assay, a series of standard solutions of bovine serum albumin were prepared to produce a standard curve. […] The samples were then incubated for 60 minutes at 60° C., and the absorbance at 562 nm read using a spectrophotometer (see Table 17). […]

[3] = system: 12 day dry surface biofilm; assay: Bacterial reduction from 12 day dry surface biofilm, clean and dirty conditions (Examples 15, 16); type: cell-based, Staphylococcus aureus; conditions: for Log reduction: 5 minute contact time
Protocol: The bacterial reductions obtained from a 12 day dry surface biofilm were assessed under clean conditions using Example 9, Chlorclean tablets and a generic SDIC tablet
Each test product was dissolved in water.
Coupons coated in 12-day dry surface biofilm were produced as per Example 8. 2 ml of each test solution, followed by 2 ml of water were added to the wells in a tissue culture plate.
After a 5 minute contact time, coupons were removed from the disinfectant solutions, rinsed twice using 30 ml phosphate buffered saline for 5 seconds, and then placed into 5 ml tubes containing 2 ml of a neutralizer solution comprising 6% Tween 80 plus 1% sodium thiosulfate plus 5% bovine serum plus 10% Bovine Serum Albumin.
The tubes were sonicated for 20 minutes and then vortexed for 2 minutes. Serial 10-fold dilutions were then made and 100 ul of neat, 10^−1, 10^−2, 10^−3 and 10^−4 dilutions were plated on Horse Blood Agar plates. The plates were incubated at 37° C. overnight and then enumerated.
Control coupons, not exposed to disinfectant were similarly worked up to allow the log reductions to be calculated
The bacterial reductions obtained from a 12 day dry surface biofilm were assessed under dirty conditions using Example 9, Chlorclean tablets and a generic SDIC tablet. Each test product was dissolved in artificial hard water containing 340 ppm CaCO3 to which was added 5% Bovine Calf Serum.
Coupons coated in 12-day dry surface biofilm were produced as per Example 8. 2 ml of each test solution, followed by 2 ml of hard water to which was added 5% bovine calf serum were added to the wells in a tissue culture plate.
Control coupons, not exposed to disinfectant were similarly worked up to allow the log reductions to be calculated.

[4] = system: dry surface biofilm of S. aureus; assay: Kill of organisms within dry surface biofilm (Example 18); type: cell-based, Staphylococcus aureus
planktonic S. aureus = assay: Disinfectant efficacy against planktonic bacteria (Example 17); type: cell-based, Staphylococcus aureus; conditions: dirty conditions (5% bovine calf serum), 5 minutes contact time
[5] = system: Staphylococcus aureus dry surface biofilm; conditions: solution containing 20,000 ppm available chlorine; cited from earlier work
[6] = absence of biological soil, five minutes contact time
[7] = dirty conditions (presence of an organic soil), 5 minutes contact time

| Compound | TOC Coupons with Biofilm [1] | TOC due to biofilm [1] | TOC Blank coupons [1] | % Reduction (TOC) [1] | Percentage reduction ([2]; Example 14: protein, shorter contact time (not given)) | Neutraliser control ([3]; clean conditions) | Log reduction ([3]; clean conditions) | Neutraliser control ([3]; dirty conditions) | Log reduction ([3]; dirty conditions: hard water 340 ppm CaCO3 with 5% Bovine Calf Serum) | log10 reduction of biofilm viability [4, 6] | log10 reduction of biofilm viability ([4]; absence of biological soil, five minutes contact time, listed as SIDC) | log10 reduction of biofilm viability [4, 7] | log10 reduction / activity (planktonic S. aureus) | Percentage protein reduction ([2]; Example 13: 10 minute contact time, calculated from positive control (Milli-Q water)) | survival after exposure [5] |
| --- | --- | --- | --- | --- | --- | --- | --- | --- | --- | --- | --- | --- | --- | --- | --- |
| [Na+].[OH-] [1M NaOH, sodium hydroxide] | 0.16 µg | -0.01 µg | 0.17 µg | 100% |  |  |  |  |  |  |  |  |  |  |  |
| O=c1nc([O-])n(Cl)c(=O)n1Cl.[Na+] [SDIC, sodium diisocyanurate] |  |  |  |  | 17.65 | 0.045 | 6.55 log | 0.018 | 0.007 log | 2.85 log10 | 3 log10 | 0.03 log10 |  |  |  |
| OO [hydrogen peroxide] |  |  |  |  |  |  |  |  |  | zero and no effect |  | zero | completely deactivated |  |  |
| OCl [sodium hypochlorite, Sodium hypochlorite] | 1.87 µg | 1.53 µg | 0.34 µg | 79% |  |  |  |  |  |  |  |  |  | 11.50 | still showing survivors |
